Experimental data published in US8815909B2, “Diaminocyclohexane compounds and uses thereof” (Bristol-Myers Squibb Company, priority 2011, dated 2014).
Like-named read-outs stand apart in the source and are kept apart here.

Target: T1, human Y4 receptor (Homo sapiens, UniProt P50391)
T1 construct: expressed in transfected cells
Assay: NPY4 cAMP HTRF Agonist Assay (inhibitory cAMP assay, Gi activation by Y4 agonism)
Assay type: cell-based
In short: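 Y4 agonism read as lowered forskolin-stimulated cAMP (HTRF, 1 h detection at room temperature). Stable human Y4 CHO clone, 5000 cells/well, incubated 30 min at room temperature with compounds plus forskolin and IBMX in PBS.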

[1] = TABLE 2, R2 is Phenyl-CN, read-out: hY4 CAMP EC50
[2] = human Y4 receptor, cAMP, read-out: hY4 CAMP EC50
[3] = human Y4 stable CHO clonal cells, forskolin + IBMX, read-out: NPY4 cAMP HTRF Agonist Assay EC50
[4] = second TABLE 1, R2 is Phenyl-CF3, read-out: hY4 CAMP EC50

T1 sequence (P50391 whole entry): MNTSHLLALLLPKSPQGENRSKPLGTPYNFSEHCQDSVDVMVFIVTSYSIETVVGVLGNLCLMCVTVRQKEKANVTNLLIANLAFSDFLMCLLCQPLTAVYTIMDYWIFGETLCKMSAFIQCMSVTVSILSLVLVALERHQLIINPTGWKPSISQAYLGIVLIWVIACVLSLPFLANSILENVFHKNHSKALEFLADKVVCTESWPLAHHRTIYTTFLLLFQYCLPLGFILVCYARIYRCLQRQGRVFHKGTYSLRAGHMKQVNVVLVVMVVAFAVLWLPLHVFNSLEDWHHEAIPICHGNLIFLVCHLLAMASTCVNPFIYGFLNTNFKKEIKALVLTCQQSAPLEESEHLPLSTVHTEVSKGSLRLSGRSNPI

## N#Cc1ccc(N2CCC[C@H](N[C@@H]3CCCC[C@H]3Nc3cc(-c4ccccc4O)ccn3)C2)cc1 [Example 276]
[1]
  EC50: 120 nM

## Cc1nc(-c2ncc(N3CCC[C@H](N[C@@H]4CCCC[C@H]4Nc4cc(C#N)ccn4)C3)cn2)no1 [Example 469]
[2]
  EC50: 96 nM

## Cc1noc(-c2ccc(N3CCC[C@H](N[C@@H]4CCCC[C@H]4Nc4nccc(-c5ccccc5)n4)C3)cc2)n1 [Example 354]
[2]
  EC50: 15 nM

## NC(=O)c1cccc(-c2ccnc(N[C@@H]3CCCC[C@H]3N[C@H]3CCCN(c4ccc(-c5noc(C6CC6)n5)cn4)C3)c2)c1 [Example 451]
[2]
  EC50: 4 nM

## O=[N+]([O-])c1ccc(N2CCC[C@H](N[C@@H]3CCCC[C@H]3Nc3cc(-c4ccccc4)ccn3)C2)cc1 [Example 25, (1R,2R)—N1-((S)-1-(4-Nitrophenyl)piperidin-3-yl)-N2-(4-phenylpyridin-2-yl)cyclohexane-1,2-diamine]
[3]
  EC50: 14 nM

## O=C1OCCN1c1cccc(-c2cnc(N[C@@H]3CCCC[C@H]3N[C@H]3CCCN(c4ccc(C(F)(F)F)cc4)C3)o2)c1 [Example 133]
[4]
  EC50: 8 nM

## CN(C)C(=O)c1cccc(-c2cnc(N[C@@H]3CCCC[C@H]3N[C@H]3CCCN(c4ccc(C(F)(F)F)cc4)C3)o2)c1 [Example 123]
[4]
  EC50: 234 nM

## N#Cc1cnc(N2CCC[C@H](N[C@@H]3CCCC[C@H]3Nc3ncc(-c4ccccc4)o3)C2)nc1 [Example 82, 2-((S)-3-((1R,2R)-2-(5-Phenyloxazol-2-ylamino)cyclohexylamino)piperidin-1-yl)pyrimidine-5-carbonitrile]
[3]
  EC50: 107 nM

## FC(F)(F)Oc1ccc(-c2cnc(N[C@@H]3CCCC[C@H]3N[C@H]3CCCN(c4ccc(-n5cncn5)cc4)C3)o2)cc1 [Example 89, (1R,2R)—N1-((S)-1-(4-(1H-1,2,4-Triazol-1-yl)phenyl)piperidin-3-yl)-N2-(5-(4-(trifluoromethoxy)phenyl)oxazol-2-yl)cyclohexane-1,2-diamine bis-trifluoroacetate]
[3]
  EC50: 58 nM

## N#Cc1ccc(N2CCC[C@H](N[C@@H]3CCCC[C@H]3Nc3cc(-n4ccc(C(F)(F)F)n4)ccn3)C2)cc1 [Example 206]
[1]
  EC50: 440 nM

## C[C@]1(N[C@@H]2CCCC[C@H]2Nc2ncc(-c3cccc(C(N)=O)c3)o2)CCCN(c2ccc(C(F)(F)F)cc2)C1 [Example 106, 3-(2-(((1R,2R)-2-(((S)-3-Methyl-1-(4-(trifluoromethyl)phenyl)piperidin-3-yl)amino)cyclohexyl)amino)oxazol-5-yl)benzamide]
[3]
  EC50: 0.3 nM

## FC(F)(F)Oc1ccc(-c2cnc(N[C@@H]3CCCC[C@H]3N[C@H]3CCCN(c4ccc(OC(F)(F)F)cc4)C3)o2)cc1 [Example 87, (1R,2R)—N1-(5-(4-(Trifluoromethoxy)phenyl)oxazol-2-yl)-N2-((S)-1-(4-(trifluoromethoxy)phenyl)piperidin-3-yl)cyclohexane-1,2-diamine]
[3]
  EC50: 185 nM

## N#Cc1cc(N2C[C@@H]3C[C@H](N[C@@H]4CCCC[C@H]4Nc4ncc(-c5cccc(C(N)=O)c5)o4)[C@H]2C3)ncn1 [Example 439]
[2]
  EC50: 578 nM

## O=[N+]([O-])c1ccc(N2CCC[C@H](N[C@@H]3CCCC[C@H]3Nc3nc4cc(OC(F)(F)F)ccc4o3)C2)cc1 [Example 4, (1R,2R)—N1-((S)-1-(4-Nitrophenyl)piperidin-3-yl)-N2-(5-(trifluoromethoxy)benzo[d]oxazol-2-yl)cyclohexane-1,2-diamine]
[3]
  EC50: 236 nM

## C[C@@H](O)c1cccc(-c2ccnc(N[C@@H]3CCCC[C@H]3N[C@H]3CCCN(c4ccc(C#N)cc4)C3)c2)c1 [Example 267]
[1]
  EC50: 3 nM

## C[C@]1(N[C@@H]2CCCC[C@H]2Nc2ncc(-c3cccc(C(N)=O)c3)o2)CCCN(c2ccc(C#N)cc2)C1 [Example 199]
[1]
  EC50: 2 nM

## Cc1nc(-c2ccc(N3CCC[C@H](N[C@@H]4CCCC[C@H]4Nc4ncc(-c5cccc(C(=O)NC6CC6)c5)o4)C3)cn2)no1 [Example 387]
TABLE 7, R2 is Pyridinyl-oxadiazole-CH3, read-out: hY4 CAMP EC50
  EC50: 78 nM

## CCOC(=O)Nc1cccc(-c2ccnc(N[C@@H]3CCCC[C@H]3N[C@H]3CCCN(c4ccc(C(F)(F)F)cc4)C3)c2)c1 [Example 136]
[4]
  EC50: 2 nM
